Target: T1, human M1 receptor (hCHRM1) (Homo sapiens, UniProt P11229)
T1 construct: expressed in transfected cells; host or cells: CHO-K1
T1 sequence (P11229 1-460): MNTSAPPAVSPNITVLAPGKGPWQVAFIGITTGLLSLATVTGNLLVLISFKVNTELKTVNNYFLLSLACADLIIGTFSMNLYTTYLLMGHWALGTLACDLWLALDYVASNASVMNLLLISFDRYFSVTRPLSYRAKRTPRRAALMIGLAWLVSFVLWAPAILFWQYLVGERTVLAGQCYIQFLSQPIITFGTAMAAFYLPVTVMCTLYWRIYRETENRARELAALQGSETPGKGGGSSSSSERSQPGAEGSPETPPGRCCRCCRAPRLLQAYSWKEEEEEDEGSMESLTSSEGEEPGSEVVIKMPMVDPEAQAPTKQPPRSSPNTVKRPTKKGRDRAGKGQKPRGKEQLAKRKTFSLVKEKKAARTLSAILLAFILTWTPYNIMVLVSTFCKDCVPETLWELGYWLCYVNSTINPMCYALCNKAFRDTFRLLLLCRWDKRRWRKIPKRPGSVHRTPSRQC
Assay: Measurement of M1 receptor positive allosteric modulator (M1PAM) activity, calcium fluorescence with acetylcholine at EC20
Type: cell-based
Conditions: for activity (%) at 10 μM: 10 μM test compound, 100% = 1 μM acetylcholine, 0% = DMSO; for EC50: CHO-K1 cells expressing hCHRM1, acetylcholine at EC20 (final 0.8-1.0 nM), read-out: IP value (inflection point in the concentration-dependent curve)
Method: Measurement of M1 Receptor Positive Allosteric Modulator (M1PAM) Activity
The activity of a test compound in the presence of acetylcholine at EC20 concentration (final concentration 0.8-1.0 nM), which affords an action corresponding to about 20% of the maximum activity, was measured as PAM activity. The method is as follows. CHO-K1 cells stably expressing a human M1 receptor (hCHRM1) were plated on a 384-well black clear bottom plate (BD Falcon) at 5,000 cells/well, and cultured in an incubator at 37° C., 5% CO2 for 1 day. The medium in the cell plate was removed, and assay buffer A containing calcium indicator (Recording medium (DOJINDO LABORATORIES), 0.1% BSA (Wako Pure Chemical Industries, Ltd.), 2.5 μg/mL Fluo-4 AM (DOJINDO LABORATORIES), 0.08% Pluronic F127 (DOJINDO LABORATORIES), 1.25 mM probenecid (DOJINDO LABORATORIES)) was added at 30 μL/well. The cells were left standing in the incubator at 37° C., 5% CO2 for 30 min, and further left standing at room temperature for 30 min. A test compound prepared by diluting with assay buffer B (HBSS (Invitrogen), 20 mM HEPES (Invitrogen), 0.1% BSA) containing 3.2-4.0 nM acetylcholine was added at 10 μL/well, and the fluorescence was measured by FDSS/μCELL (Hamamatsu Photonics K.K.) for 1 min every for 1 second. With the definition that the amount of change in the fluorescence on addition of acetylcholine (final concentration 1 μM) is 100% and that on addition of DMSO instead of a test compound is 0%, the activity (%) of the test compound was calculated, and the inflection point in the concentration-dependent curve of the test compound was calculated as IP values.

Row | activity (%) at 10 μM [%] | EC50 [nM] | Structure (SMILES)
1 | 99 | 1.2 | Cn1cc(-c2ccc(C(F)c3cc(C(=O)N[C@H]4CCCC[C@@H]4O)nc4ccoc34)cn2)cn1 (stereo partly drawn) [Example 70, 7-(fluoro(6-(1-methyl-1H-pyrazol-4-yl)pyridin-3-yl)methyl)-N-((1S,2S)-2-hydroxycyclohexyl)furo[3,2-b]pyridine-5-carboxamide]
2 | 108 | 5.3 | CCNC(=O)c1ccc(Cc2cc(C(=O)N[C@H]3CCOC[C@@H]3O)nc3c2OCC3)cc1F [Example 81, 1,5-anhydro-2,3-dideoxy-3-(((7-(4-(ethylcarbamoyl)-3-fluorobenzyl)-2,3-dihydrofuro[3,2-b]pyridin-5-yl)carbonyl)amino)-L-threo-pentitol]
3 | 110 | 6.4 | O=C(N[C@H]1CCOC[C@@H]1O)c1cc(Cc2ccc(C(=O)NC3CC3)c(F)c2)c2c(n1)CCO2 [Example 82, 1,5-anhydro-3-(((7-(4-(cyclopropylcarbamoyl)-3-fluorobenzyl)-2,3-dihydrofuro[3,2-b]pyridin-5-yl)carbonyl)amino)-2,3-dideoxy-L-threo-pentitol]
4 | 111 | 7.6 | O=C(N[C@H]1CCOC[C@@H]1O)c1cc(Cc2ccc(C(=O)NC[C@H]3CCCO3)c(F)c2)c2c(n1)CCO2 [Example 88, 1,5-anhydro-2,3-dideoxy-3-(((7-(3-fluoro-4-(((2R)-tetrahydrofuran-2-ylmethyl)carbamoyl)benzyl)-2,3-dihydrofuro[3,2-b]pyridin-5-yl)carbonyl)amino)-L-threo-pentitol]
5 | 113 | 1.4 | O=C(N[C@H]1CCOC[C@@H]1O)c1cc(Cc2ccc(C(=O)NCc3ccc(O)cc3)c(F)c2)c2c(n1)CCO2 [Example 90, 1,5-anhydro-2,3-dideoxy-3-(((7-(3-fluoro-4-((4-hydroxybenzyl)carbamoyl)benzyl)-2,3-dihydrofuro[3,2-b]pyridin-5-yl)carbonyl)amino)-L-threo-pentitol]
6 | 107 | 11 | O=C(O)CNC(=O)c1ccc(Cc2cc(C(=O)N[C@H]3CCOC[C@@H]3O)nc3c2OCC3)cc1F [Example 96, ((2-fluoro-4-((5-(((3R,4S)-3-hydroxytetrahydro-2H-pyran-4-yl)carbamoyl)-2,3-dihydrofuro[3,2-b]pyridin-7-yl)methyl)benzoyl)amino)acetic acid]
7 | 107 | 5.1 | CC(C)SCCNC(=O)c1ccc(Cc2cc(C(=O)N[C@H]3CCOC[C@@H]3O)nc3c2OCC3)cc1F [Example 97, 1,5-anhydro-2,3-dideoxy-3-(((7-(3-fluoro-4-((2-(isopropylsulfanyl)ethyl)-carbamoyl)benzyl)-2,3-dihydrofuro[3,2-b]pyridin-5-yl)carbonyl)amino)-L-threo-pentitol]
8 | 103 | 3.8 | CN(C)C(=O)CNC(=O)c1ccc(Cc2cc(C(=O)N[C@H]3CCOC[C@@H]3O)nc3c2OCC3)cc1F [Example 100, 1,5-anhydro-2,3-dideoxy-3-(((7-(4-((2-(dimethylamino)-2-oxoethyl)carbamoyl)-3-fluorobenzyl)-2,3-dihydrofuro[3,2-b]pyridin-5-yl)carbonyl)amino)-L-threo-pentitol]
9 | 105 | 4.3 | O=C(N[C@H]1CCOC[C@@H]1O)c1cc(Cc2ccc(C(=O)NC[C@H]3CCCO3)c(F)c2)c2occc2n1 [Example 105, 1,5-anhydro-2,3-dideoxy-3-(((7-(3-fluoro-4-(((2R)-tetrahydrofuran-2-ylmethyl)carbamoyl)benzyl)-furo[3,2-b]pyridin-5-yl)carbonyl)amino)-L-threo-pentitol]
10 | 107 | 8.8 | COCCNC(=O)c1ccc(C(C)c2cc(C(=O)N[C@H]3CCOC[C@@H]3O)nc3ccoc23)cc1F (stereo partly drawn) [Example 111, 1,5-anhydro-2,3-dideoxy-3-(((7-(1-(3-fluoro-4-((2-methoxyethyl)carbamoyl)phenyl)ethyl)furo[3,2-b]pyridin-5-yl)carbonyl)amino)-L-threo-pentitol]
11 | 109 | 21 | CN1Cc2cc(Cc3cc(C(=O)N[C@H]4CCOC[C@@H]4O)nc4c3OCC4)ccc2C1=O [Example 113, 1,5-anhydro-2,3-dideoxy-3-(((7-((2-methyl-1-oxo-2,3-dihydro-1H-isoindol-5-yl)methyl)-2,3-dihydrofuro[3,2-b]pyridin-5-yl)carbonyl)amino)-L-threo-pentitol]

Row | Structure (SMILES) | activity (%) at 10 μM [%] | EC50 [nM]
12 | CC(C)(C)OCCNC(=O)c1ccc(Cc2cc(C(=O)N[C@H]3CCOC[C@@H]3O)nc3c2OCC3)cc1F [Example 89, 1,5-anhydro-3-(((7-(4-((2-tert-butoxyethyl)carbamoyl)-3-fluorobenzyl)-2,3-dihydrofuro[3,2-b]pyridin-5-yl)carbonyl)amino)-2,3-dideoxy-L-threo-pentitol] | 110 | 25

Reference: patent US12378256B2, “Heterocyclic compound” (Takeda Pharmaceutical Company Limited, priority 2017, dated 2025)
